In patent publication US8431596B2 (Cancer Research Technology Limited, priority 2007, dated 2013) one finds IC50 data, which are given here for two molecules.

Structures are written as SMILES.

In assay [1] the test system is Axl activation via the downstream phosphorylation of Akt (serine 473). The assay is described as follows: AXL Inhibition Cell Based ELISA Assay (FACE kit, Gas6-stimulated MDA-MB-231 cells). Conditions: Homo sapiens, first data set, Gas6 200 ng/ml, pS473 Akt. As to the method:
AXL Inhibition Cell Based ELISA Assay
This cell based ELISA assay is a simple cell-based method used to monitor activation of proteins by phosphorylation. The Active Motif, Fast Activated Cell-based ELISA (FACE) kit (Active Motif Cat No: 48120) was used in this case to monitor the inhibition, by test compounds, of Axl activation via the downstream phosphorylation of Akt (serine 473). In this system, cells are cultured in 96 well plates and treated with test compounds and Axl is activated by the introduction of Gas6 (Axl ligand). The inhibition of Axl can be directly assessed via the reduction of pS^473 Akt levels.
Active Motif FACE Kit reagents (Active Motif Cat. No: 48120(AKT)).
10% hydrogen peroxide (Sigma H1009).
10% Sodium azide (Sigma 7128).
37% Formaldehyde (Sigma F8775).
Axl/Fc conjugate (R&D Systems 154-AL).
Recombinant mouse Gas6 (R&D Systems 986-GS-025).
All cell incubations were carried out in humidified incubators set at 5% CO2 and 37° C. […]
Immunostaining (carried out as outlined in FACE kit protocol). […] 100 μL developing solution was added to each well and monitored for colour change to medium to dark blue (2 to 20 minutes). 100 μL of stop solution was then added and absorbance was read at 450 nm within 5 minutes of addition.
Crystal Violet cell staining. After reading absorbance at 450 nm, the plates were washed twice with 200 μL wash buffer and twice with 200 μL PBS. […]

The target in assay [2] is T1, AXL (human catalytic domain) (Homo sapiens, UniProt P30530).
T1 construct: purchased Upstate Ltd. 14-512
T1 sequence (P30530 473-894): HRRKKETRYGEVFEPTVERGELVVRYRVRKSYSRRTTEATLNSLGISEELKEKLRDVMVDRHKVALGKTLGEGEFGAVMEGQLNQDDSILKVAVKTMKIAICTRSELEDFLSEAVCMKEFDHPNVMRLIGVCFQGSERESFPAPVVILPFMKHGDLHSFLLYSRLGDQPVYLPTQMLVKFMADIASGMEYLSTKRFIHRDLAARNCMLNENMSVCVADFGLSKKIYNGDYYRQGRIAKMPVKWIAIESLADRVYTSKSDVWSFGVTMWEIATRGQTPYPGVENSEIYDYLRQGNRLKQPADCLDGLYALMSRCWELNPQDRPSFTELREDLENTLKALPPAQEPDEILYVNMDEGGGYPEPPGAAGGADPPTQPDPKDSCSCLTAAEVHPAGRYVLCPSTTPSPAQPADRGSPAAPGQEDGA
Nature of the assay: AXL (human catalytic domain) Enzyme Activity Assay (IMAP fluorescence polarisation). The class given is biochemical. The procedure, abridged:
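Recombinant human AXL isoform 1 (aa473-894; final 15 nM) phosphorylated 100 nM fluorescein-CSK-tide with 150 μM ATP (KM) in HEPES pH 7.0/MgCl2/DTT buffer for 60 min at room temperature. IMAP fluorescence polarisation read after overnight binding; IC50 from 10-point 4-parameter logistic fits.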
(Fluorescence polarisation rises when a labelled molecule tumbles more slowly, as on binding a larger partner.)

The mark [3] stands for this setting: first data set, recombinant AXL isoform 1 aa473-894, 150 μM ATP.
The mark [4] stands for this setting: further data set (WW-001 through WW-169, XX-001 through XX-469, YY-001 through YY-016, ZZ-001 through ZZ-003), 150 μM ATP.

One may read the IC50 as the concentration at which inhibition is half-maximal. In the case of `CCNCCOc1ccc(Nc2nc3cccc(-c4ccc5c(c4)OCCO5)n3n2)cc1` [XX-070], the IC50 was 1030 nM in assay [1], below 1000 nM in assay [2] (setting [3]) and at most 100 nM in assay [2] (setting [4]).
Turning to `CN1CCOc2cc(-c3cccc4nc(NC(=O)C5CC5)nn34)ccc21` [WW-104], the IC50 in assay [1] is 8490 nM; in assay [2] (setting [3]) it was below 1000 nM; in assay [2] (setting [4]), 100 to 1000 nM.
